Measured values: patent publication US8258290B2, “Glycomimetic inhibitors of the PA-IL lectin, PA-IIL lectin or both the lectins from pseudomonas” (priority 2005, dated 2012)

How the values were obtained:
[1] = biological target: T1, PA-IL lectin (Pseudomonas aeruginosa, UniProt Q05097); assay: Assay for PA-IL antagonist activity (plate-coated PA-IL, α-galactose-PAA-biotin/streptavidin-HRP competition); assay type: binding; conditions: for inhibition of PA-IL lectin: FIG. 5
T1 construct: purchased Sigma-Aldrich, St. Louis, Mo
Experimental: (§1) Wells of a microtiter plate (plate 1) are coated with PA-IL (Sigma-Aldrich, St. Louis, Mo.) by incubation for 2 hrs at 37° C. The wells are then blocked for 2 hrs by the addition of 1% bovine serum albumin (BSA) diluted in TBS-Ca (50 mM TrisHCl, 150 mM NaCl, 2 mM CaCl2 pH 7.4) mixed 1:1 v/v with Stabilcoat (Surmodics, Eden Prairie, Minn.). In a second low-binding round-bottom microtiter plate (plate 2), test antagonists are serial diluted in 1% BSA in TBS-Ca/Stabilcoat (60 μl/well). Preformed conjugates of α-galactose-PAA-biotin (GlycoTech Corp, Gaithersburg, Md.) mixed with streptavidin-HRP (KPL Labs, Gaithersburg, Md.) are added to each well of plate 2 (60 μl/well of 2 μg/ml). Plate 1 is then washed with TBS-Ca and 100 μl/well are transferred from plate 2 to plate 1. After incubation at room temperature for 2 hrs, plate 1 is washed and 100 μl of TMB reagent (KPL Labs, Gaithersburg, Md.) is added to each well. After incubation for 5 minutes at room temperature, the reaction is stopped by adding 100 μl/well of 1M H3PO4 and the absorbance of light at 450 nm is determined by a microtiter plate reader.

[2] = biological target: T2, PA-IIL lectin (Pseudomonas aeruginosa, UniProt Q9HYN5); assay: Assay for PA-IIL antagonist activity (plate-coated PA-IIL, fucose-PAA-biotin/streptavidin-HRP competition); assay type: binding; conditions: for inhibition of the PA-IIL lectin: FIG. 6
T2 construct: Dr. Wimmerova, Masaryk University, Brno, Czech Republic
Experimental: as §1, with “PA-IIL (Dr. Wimmerova, Masaryk University, Brno, Czech Republic)” for “PA-IL (Sigma-Aldrich, St. Louis, Mo.)”, “Preformed conjugates of α-galactose-PAA-biotin (GlycoTech Corp, Gaithersburg, Md.) mixed with streptavidin-HRP (KPL Labs, Gaithersburg, Md.) are added to each well of plate 2 (60 μl/well of 2 μg/ml).” left out

[3] = biological target: PA-IIL binding to human epithelial cells (Pseudomonas aeruginosa, UniProt Q9HYN5); assay: Inhibition of PA-IIL lectin binding to human buccal epithelial cells (flow cytometry); assay type: cell-based; conditions: FIG. 9A-9F, biotinylated PA-IIL, fluorescein-labeled streptavidin, FACS
Experimental: FIG. 9A-9F illustrates the inhibition of PA-IIL binding to human epithelial cells. Human buccal epithelial cells are incubated with biotinylated PA-IIL lectin followed by detection of bound lectin with fluorescein-labeled streptavidin. Fluorescently labeled cells are quantified by fluorescent-activated cell sorting (FIG. 9B).
Obtain sample of buccal cells by scraping inside of cheek and collecting in 2 mis PBS. Spin cells at 400 g for 7 minutes to generate cell pellet. Discard supernatant. Resuspend in cold TBS-Ca (50 mM TrisHCl, 150 mM NaCl, 2 mM CaCl2 pH 7.4) to cell concentration of 10^6 cells/ml. Aliquot 0.1 ml to each tube. Add biotinylated PA-I or PA-II to tubes (5μ/well of 1.0 mg/ml lectin). Add inhibitors to tubes (5 μl at desired concentration). Incubate on ice for 30 minutes. Wash cells once by adding 400 μl of cold TBS-Ca to each tube and spinning at 400 g for 7 minutes. Discard supernatant. Resuspend cells in 100 μl of cold TBS-Ca. Add streptavidin-FITC (2 μl/tube of 1 mg/ml, KPL Labs, Gaithersburg, Md.). Incubate 30 minutes on ice. Wash cells once by adding 400 μl of cold TBS-Ca to each tube and spinning at 400 g for 7 minutes. Discard supernatant. Resuspend cells in 500 μl of cold TBS-Ca. Analyze in flow cytometer.

T2 sequence (Q9HYN5 entry or part of it): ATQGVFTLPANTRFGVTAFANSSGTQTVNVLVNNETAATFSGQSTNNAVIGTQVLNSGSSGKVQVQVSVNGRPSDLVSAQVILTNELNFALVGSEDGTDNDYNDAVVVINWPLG
T1 sequence (Q05097 whole entry): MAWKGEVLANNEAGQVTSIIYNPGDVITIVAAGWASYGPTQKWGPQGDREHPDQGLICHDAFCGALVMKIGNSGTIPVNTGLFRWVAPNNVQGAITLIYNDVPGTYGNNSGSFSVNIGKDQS
PA-IIL binding to human epithelial cells, sequence (Q9HYN5 entry or part of it): as the sequence (Q9HYN5 entry or part of it) above

| SMILES | inhibition of PA-IL lectin ([1]; qualitative) | inhibition of PA-IL in IC50 determination ([1]; FIG. 7, qualitative) | inhibition of PA-IL relative to galactose (from IC50 determination) ([1]; FIG. 7, times better than galactose) [times] | inhibition of the PA-IIL lectin ([2]; qualitative) | inhibition of PA-IIL relative to fucose (from IC50 determination) ([2]; FIG. 8, times better than fucose) [times] | inhibition of PA-IIL binding to human epithelial cells [3] | inhibition of PA-IIL in IC50 determination ([2]; FIG. 8, qualitative) |
| --- | --- | --- | --- | --- | --- | --- | --- |
| C[C@H](O)[C@@H](O)[C@@H](O)[C@H](O)C=O [fucose] | not | inactive |  |  |  |  |  |
| OC[C@H]1O[C@H](OCC2O[C@@H](O)[C@H](O)[C@@H](O)[C@@H]2O)[C@H](O)[C@@H](O)[C@H]1O (stereo partly drawn) [Melibiose, Melibiose (Galα1-6Gal)] | inhibited |  |  |  |  |  |  |
| CC1OC(OC2C(CO)OCCC2OC2OC(CO)C(O)C(OC3OC(CO)C(O)C(O)C3O)C2O)C(O)C(O)C1O (stereo not drawn) [Glycomimetic 1] | inhibited |  | 4 to 5 | inhibited | 4 to 5 | inhibits binding |  |
| O=C[C@H](O)[C@@H](O)[C@@H](O)[C@H](O)CO [galactose] | inhibited |  |  | not |  | no effect | inactive |
